Experimental data as given in patent US20170198006A1, “PRMT5 INHIBITORS AND USES THEREOF” (Epizyme, Inc., priority 2014, published 2017).
Like-named read-outs stand apart in the source and are kept apart here.

Biological target: T1, PRMT5/MEP50 (Homo sapiens, UniProt O14744)
T1 construct: Flag-PRMT5; made in house; host or cells: Spodoptera frugiperda (SF9), baculovirus
Assay: PRMT5 Biochemical Assay (PRMT5/MEP50 enzyme assay on histone H4 peptide substrate, 3H-SAM Flashplate)
Description: S-adenosylmethionine (SAM), S-adenosylhomocysteine (SAH), bicine, KCl, Tween20, dimethylsulfoxide (DMSO), bovine skin gelatin (BSG), and Tris(2-carboxyethyl)phosphine hydrochloride solution (TCEP) were purchased from Sigma-Aldrich at the highest level of purity possible. ^3H-SAM was purchase from American Radiolabeled Chemicals with a specific activity of 80 Ci/mmol. 384-well streptavidin Flashplates were purchased from PerkinElmer.
Peptide representative of human histone H4 residues 1-15 was synthesized with a C-terminal linker-affinity tag motif and a C-terminal amide cap by 21st Century Biochemicals.
The amplified genes were sublconed into pENTR/D/TEV (Life Technologies) and subsequently transferred by Gateway™ attL×attR recombination to pDEST8 baculvirus expression vector (Life Technologies).
Protein over-expression was accomplished by infecting exponentially growing Spodoptera frugiperda (SF9) cell culture at 1.2×10^6 cell/ml with a 5000 fold dilution of BIIC stock. Infections were carried out at 27° C. for 72 hours, harvested by centrifugation, and stored at −80° C. for purification.
Flag-PRMT5/6His-MeP50 was eluted with 300 mM Imidazole in the same buffer.
General Procedure for PRMT5/MEP50 Enzyme Assays on Peptide Substrates.
The assays were all performed in a buffer consisting of 20 mM Bicine (pH=7.6), 1 mM TCEP, 0.005% BSG, and 0.002% Tween20, prepared on the day of use. […] DMSO (1 ul) was added to Columns 11, 12, 23, 24, rows A-H for the maximum signal control and 1 ul of SAH, a known product and inhibitor of PRMT5/MEP50, was added to columns 11, 12, 23, 24, rows I-P for the minimum signal control. A cocktail (40 ul) containing the PRMT5/MEP50 enzyme and the peptide was added by Multidrop Combi (Thermo-Fisher). The compounds were allowed to incubate with PRMT5/MEP50 for 30 min at 25 degrees Celsius, then a cocktail (10 ul) containing ^3H-SAM was added to initiate the reaction (final volume=51 ul). […] The assays were stopped by the addition of non-radioactive SAM (10 ul) to a final concentration of 600 uM, which dilutes the ^3H-SAM to a level where its incorporation into the peptide substrate is no longer detectable. 50 ul of the reaction in the 384-well polypropylene plate was then transferred to a 384-well Flashplate and the biotinylated peptides were allowed to bind to the streptavidin surface for at least 1 hour before being washed three times with 0.1% Tween20 in a Biotek ELx405 plate washer. The plates were then read in a PerkinElmer TopCount plate reader to measure the quantity of ^3H-labeled peptide bound to the Flashplate surface, measured as disintegrations per minute (dpm) or alternatively, referred to as counts per minute (cpm).
Where dpm=disintegrations per minute, cmpd=signal in assay well, and min and max are the respective minimum and maximum signal controls.
Where top and bottom are the normally allowed to float, but may be fixed at 100 or 0 respectively in a 3-parameter fit. The Hill Coefficient normally allowed to float but may also be fixed at 1 in a 3-parameter fit. Y is the % inhibition and X is the compound concentration.

[1] = PRMT5 biochemical assay, read-out: Biochemical IC50

T1 sequence (O14744 with tags, fused parts or gaps): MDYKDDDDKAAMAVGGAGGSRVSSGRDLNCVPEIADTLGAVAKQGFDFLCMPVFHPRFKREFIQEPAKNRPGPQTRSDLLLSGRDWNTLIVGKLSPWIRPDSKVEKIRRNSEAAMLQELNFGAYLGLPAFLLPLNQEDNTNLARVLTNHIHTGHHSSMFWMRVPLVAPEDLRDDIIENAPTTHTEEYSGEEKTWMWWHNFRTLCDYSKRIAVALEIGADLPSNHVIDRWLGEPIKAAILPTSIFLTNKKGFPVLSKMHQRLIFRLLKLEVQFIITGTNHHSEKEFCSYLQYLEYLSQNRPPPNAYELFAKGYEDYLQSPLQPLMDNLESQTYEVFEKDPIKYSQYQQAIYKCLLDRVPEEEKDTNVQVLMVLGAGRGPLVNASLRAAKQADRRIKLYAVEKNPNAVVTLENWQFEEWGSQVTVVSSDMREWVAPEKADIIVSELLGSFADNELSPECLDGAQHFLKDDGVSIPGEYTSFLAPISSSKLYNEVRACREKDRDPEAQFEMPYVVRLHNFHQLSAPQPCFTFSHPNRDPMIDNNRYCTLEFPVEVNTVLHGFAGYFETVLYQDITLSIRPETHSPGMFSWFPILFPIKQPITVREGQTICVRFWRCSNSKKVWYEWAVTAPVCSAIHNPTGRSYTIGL
T1 sequence (Q9BQA1 with tags, fused parts or gaps partner limits assumed): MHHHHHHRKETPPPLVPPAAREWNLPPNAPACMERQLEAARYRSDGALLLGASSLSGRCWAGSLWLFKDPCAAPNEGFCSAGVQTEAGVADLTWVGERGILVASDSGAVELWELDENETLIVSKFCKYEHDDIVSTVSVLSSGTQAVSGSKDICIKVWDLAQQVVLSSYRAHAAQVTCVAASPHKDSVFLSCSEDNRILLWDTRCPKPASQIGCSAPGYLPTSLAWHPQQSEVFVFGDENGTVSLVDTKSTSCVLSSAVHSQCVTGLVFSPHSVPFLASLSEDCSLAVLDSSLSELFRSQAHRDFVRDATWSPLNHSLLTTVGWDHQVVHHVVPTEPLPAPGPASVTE

| SMILES | IC50 [1] | IC50 |
| --- | --- | --- |
| CCc1ccc(NC(=O)CC2NC(N3CCN(CC)CC3)=NC2=O)cc1 (stereo not shown) [Compound 19-14] | 1 to 10 µM | – |
| O=C(CC1NC(N2CCC(c3ccccc3)CC2)=NC1=O)Nc1ccc(Cl)cc1 (stereo not shown) [Compound 57-14] | 1 to 10 µM | – |
| O=C(CC1NC(N2CCN(c3ccccc3)CC2)=NC1=O)c1ccc(Cl)cc1 (stereo not shown) [Compound 42-14] | 0.101 to 1 µM | – |
| Nc1ncnc2c1ncn2[C@@H]1O[C@H](CN2CCCN(c3ccccn3)CC2)[C@@H](O)[C@H]1O [Compound 84-1] | 0.101 to 1 µM | – |
| CN(CCc1c[nH]cn1)CCN(C)C[C@H]1O[C@@H](n2cnc3c(N)ncnc32)[C@H](O)[C@@H]1O [Compound 47-1] | 0.101 to 1 µM | – |
| COc1cccc(CN(C)CCN(C)C[C@H]2O[C@@H](n3cnc4c(N)ncnc43)[C@H](O)[C@@H]2O)c1 [Compound 20-1] | 0.101 to 1 µM | – |
| CN(CCN1CCC(c2ccccc2)CC1)CC1OC(n2cnc3c(N)ncnc32)[C@H](O)[C@@H]1O (stereo partly shown) [Compound 43-1] | 0.101 to 1 µM | – |
| CN(CCNCCc1ccc(Cl)cc1)C[C@H]1O[C@@H](n2cnc3c(N)ncnc32)[C@H](O)[C@@H]1O [Compound 61-1] | < 0.1 µM | – |
| CN(CCC[C@@H](N)C(=O)O)C[C@H]1O[C@@H](n2cnc3c(N)ncnc32)[C@H](O)[C@@H]1O [Compound 32-1] | 0.101 to 1 µM | – |
| CCSC[C@H]1O[C@@H](n2cnc3c(N)ncnc32)[C@H](O)[C@@H]1O [Compound 94-1] | 0.101 to 1 µM | – |
| CCN(CCNCCc1ccc(Cl)cc1)C[C@H]1O[C@@H](n2cnc3c(N)ncnc32)[C@H](O)[C@@H]1O [Compound 82-1] | 0.101 to 1 µM | – |
| O=C(CC1NC(N2CCN(c3ccccc3)CC2)=NC1=O)Nc1ccccc1Br (stereo not shown) [Compound 68-14] | 10 to 50 µM | – |
| COc1cc(NC(=O)CC2NC(N3CCN(c4ccccc4)CC3)=NC2=O)ccc1Cl (stereo not shown) [Compound 64-14] | 1 to 10 µM | – |
| Cc1ccc(C(=O)CC2NC(N(C)CCN(C)c3ccccc3)=NC2=O)cc1 (stereo not shown) [Compound 45-14] | 10 to 50 µM | – |
| Cc1ccc(C(=O)CC2NC(N3CCN(Cc4ccc(F)cc4)CC3)=NC2=O)cc1 (stereo not shown) [Compound 35-14] | 1 to 10 µM | – |
| O=C(CC1NC(N2CCN(Cc3ccccc3)CC2)=NC1=O)Nc1ccccc1 (stereo not shown) [Compound 6-14] | – | 10 to 50 µM |
| CN(CCNCc1ccccc1F)C[C@H]1O[C@@H](n2cnc3c(N)ncnc32)[C@H](O)[C@@H]1O [Compound 15-1] | < 0.1 µM | – |
| CC1CCN(CCN(C)C[C@H]2O[C@@H](n3cnc4c(N)ncnc43)[C@H](O)[C@@H]2O)CC1 [Compound 44-1] | 0.101 to 1 µM | – |
| O=C(CC1NC(N2CCN(c3ccccc3)CC2)=NC1=O)Nc1ccc2c(c1)OCO2 (stereo not shown) [Compound 65-14] | 10 to 50 µM | – |
| CN(CCCN)C[C@H]1O[C@@H](n2cnc3c(N)ncnc32)[C@H](O)[C@@H]1O [Compound 97-1] | < 0.1 µM | – |

| SMILES | IC50 [1] | IC50 |
| --- | --- | --- |
| N#Cc1cccc(C(=O)CC2NC(N3CCN(c4ccccc4)CC3)=NC2=O)c1 (stereo not shown) [Compound 46-14] | 1 to 10 µM | – |
| NCCCN(CC[C@H](N)C(=O)O)C[C@H]1O[C@@H](n2cnc3c(N)ncnc32)[C@H](O)[C@@H]1O [Compound 23-1] | < 0.1 µM | – |
| Cc1ccccc1C(=O)CC1NC(N2CCN(c3ccccc3)CC2)=NC1=O (stereo not shown) [Compound 69-14] | 0.101 to 1 µM | – |
| COCC(C)NCCN(C)C[C@H]1O[C@@H](n2cnc3c(N)ncnc32)[C@H](O)[C@@H]1O (stereo partly shown) [Compound 67-1] | 0.101 to 1 µM | – |
| CN(CCN(CC[C@H](N)C(=O)OCc1ccccc1)C[C@H]1O[C@@H](n2cnc3c(N)ncnc32)[C@H](O)[C@@H]1O)C(=O)OCc1ccccc1 [Compound 49-1] | < 0.1 µM | – |
| CSC[C@H]1O[C@@H](n2cnc3c(N)ncnc32)[C@H](O)[C@@H]1O [Compound 96-1] | 0.101 to 1 µM | – |
| CC(=O)Nc1ccc(NC(=O)CC2NC(N3CCN(c4ccccc4)CC3)=NC2=O)cc1 (stereo not shown) [Compound 10-14] | 10 to 50 µM | – |
| Cc1cccc(CN(C)CCN(C)C[C@H]2O[C@@H](n3cnc4c(N)ncnc43)[C@H](O)[C@@H]2O)c1 [Compound 4-1] | 0.101 to 1 µM | – |
| CN(CCN1CCC(Oc2ccccn2)CC1)C[C@H]1OC(n2cnc3c(N)ncnc32)[C@H](O)[C@@H]1O (stereo partly shown) [Compound 41-1] | 0.101 to 1 µM | – |
| CN(CCNc1ccccn1)C[C@H]1O[C@@H](n2cnc3c(N)ncnc32)[C@H](O)[C@@H]1O [Compound 56-1] | 0.101 to 1 µM | – |
| NCc1nc(CCNC(=O)c2ccccc2)cn1Cc1ccccc1 [Compound 2-2, N-(2-(2-(aminomethyl)-1-benzyl-1H-imidazol-4-yl)ethyl)benzamide] | 0.101 to 1 µM | – |
| Cc1ccc(C(=O)CC2NC(N3Cc4ccccc4C3)=NC2=O)cc1 (stereo not shown) [Compound 36-14] | 1 to 10 µM | – |
| CCOC(=O)c1ccc(NC(=O)CC2NC(N3CCN(c4ccccn4)CC3)=NC2=O)cc1 (stereo not shown) [Compound 17-14] | 1 to 10 µM | – |
| CC(C)N(CCCN)C[C@H]1O[C@@H](n2cnc3c(N)ncnc32)[C@H](O)[C@@H]1O [Compound 25-1] | 0.101 to 1 µM | – |
| CN1CC[C@@H](N(C)C[C@H]2O[C@@H](n3cnc4c(N)ncnc43)[C@H](O)[C@@H]2O)C1 [Compound 86-1] | 0.101 to 1 µM | – |
| CC(CO)NCCN(C)C[C@H]1O[C@@H](n2cnc3c(N)ncnc32)[C@H](O)[C@@H]1O (stereo partly shown) [Compound 58-1] | < 0.1 µM | – |
| Cc1ccc(NC(=O)CC2NC(N3CCN(C)CC3)=NC2=O)cc1 (stereo not shown) [Compound 4-14] | 10 to 50 µM | – |
| O=C1c2ccccc2C(=O)N1CCCSC[C@H]1C[C@@H](n2ccc3cncnc32)[C@H](O)[C@@H]1O [Compound 93-1] | 0.101 to 1 µM | – |
| NCCN(CCCC(=O)O)C[C@H]1O[C@@H](n2cnc3c(N)ncnc32)[C@H](O)[C@@H]1O [Compound 31-1] | < 0.1 µM | – |
| CCCCOC(=O)c1ccc(NC(=O)NCCNC[C@H]2O[C@@H](n3cnc4c(N)ncnc43)[C@H](O)[C@@H]2O)cc1 [Compound 75-1] | < 0.1 µM | – |

| SMILES | IC50 [1] | IC50 |
| --- | --- | --- |
| CN(CCNCCc1c(Cl)cccc1Cl)C[C@H]1O[C@@H](n2cnc3c(N)ncnc32)[C@H](O)[C@@H]1O [Compound 72-1] | < 0.1 µM | – |
| N=C(NC[C@H]1O[C@@H](n2cnc3c(N)ncnc32)[C@H](O)[C@@H]1O)c1ccccc1 [Compound 83-1] | 0.101 to 1 µM | – |
| CN(CCNCCOc1ccccc1)C[C@H]1O[C@@H](n2cnc3c(N)ncnc32)[C@H](O)[C@@H]1O [Compound 63-1] | < 0.1 µM | – |
| CN(CCNCc1ccc(Cl)cc1F)C[C@H]1O[C@@H](n2cnc3c(N)ncnc32)[C@H](O)[C@@H]1O [Compound 19-1] | 0.101 to 1 µM | – |
| O=C(CC1NC(N2CCN(c3ccccc3)CC2)=NC1=O)Nc1ccc(Cl)cc1Cl (stereo not shown) [Compound 58-14] | 0.101 to 1 µM | – |
| Cc1ccc(C(=O)CC2NC(N3CCN(C)CC3)=NC2=O)cc1 (stereo not shown) [Compound 27-14] | 1 to 10 µM | – |
| CN1CCN(C2=NC(=O)C(CC(=O)Nc3ccc(Cl)cc3)N2)CC1 (stereo not shown) [Compound 2-14] | 1 to 10 µM | – |
| NCCCN(CCN)C[C@H]1O[C@@H](n2cnc3c(N)ncnc32)[C@H](O)[C@@H]1O [Compound 30-1] | < 0.1 µM | – |
| COc1ccc(NC(=O)CC2NC(N3CCN(c4ccccn4)CC3)=NC2=O)cc1 (stereo not shown) [Compound 7-14] | 1 to 10 µM | – |
| CCN(CCc1ccc(Cl)cc1)CCN(C)C[C@H]1O[C@@H](n2cnc3c(N)ncnc32)[C@H](O)[C@@H]1O [Compound 50-1] | 0.101 to 1 µM | – |
| CC(CCCN(CCN)C[C@H]1O[C@@H](n2cnc3c(N)ncnc32)[C@H](O)[C@@H]1O)C(=O)O (stereo partly shown) [Compound 33-1] | < 0.1 µM | – |
| CN(CCN(C)C[C@H]1O[C@@H](n2cnc3c(N)ncnc32)[C@H](O)[C@@H]1O)Cc1ccccc1 [Compound 9-1] | 0.101 to 1 µM | – |
| CNCCNC[C@H]1O[C@@H](n2cnc3c(N)ncnc32)[C@H](O)[C@@H]1O [Compound 64-1] | 0.101 to 1 µM | – |
| COc1ccccc1C(=O)CC1NC(N2CC=C(c3ccccc3)CC2)=NC1=O (stereo not shown) [Compound 6-6] | 0.101 to 1 µM | – |
| CN(CCNC1CCNCC1)C[C@H]1O[C@@H](n2cnc3c(N)ncnc32)[C@H](O)[C@@H]1O [Compound 53-1] | 0.101 to 1 µM | – |
| CN(CCNC1CCC(C(C)(C)C)CC1)C[C@H]1O[C@@H](n2cnc3c(N)ncnc32)[C@H](O)[C@@H]1O (stereo partly shown) [Compound 71-1] | 0.101 to 1 µM | – |
| O=C(CC1NC(N2CCN(c3ccccc3)CC2)=NC1=O)c1cccc(Cl)c1 (stereo not shown) [Compound 47-14] | 0.101 to 1 µM | – |
| CC1CCCCN1CCCNCCN(C)C[C@H]1O[C@@H](n2cnc3c(N)ncnc32)[C@H](O)[C@@H]1O (stereo partly shown) [Compound 66-1] | 0.101 to 1 µM | – |
